From US12653183B2, “Hygroscopic salt microencapsulation, and uses thereof” (priority 2020, dated 2026)

Experiments:
[1] = pH<7
feral pigs [2] = settings: cited from earlier work
feral pigs [3] = experiment: LD50 and time to death of 1080 in feral pigs; settings: feral pigs vs wild dogs

Row | Structure (SMILES) | stability of sodium nitrite in the bait composition [1] | time for pigs to die (feral pigs [2]) | multiple of the dose used for canid pests (feral pigs [3])
1 | O=NO [sodium nitrite] | unstable |  | 
2 | O=C(O)CF [compound 1080, sodium fluoroacetate] |  | up to 12 hours | ≤ 40 fold
